Key:
[1] = multiple-dose titration clinical study in healthy subjects, daily chronotropic effects; assay type: in vivo, human
Method: S1P receptor modulators, as mentioned above, are known to cause dose dependent transient decrease in heart rate within 2-3 hours of drug intake (Legangneux et al. 2012, Hoch et al. 2014). In order to evaluate on how to best mitigate the bradyarrhythmic risk of siponimod, a multiple-dose titration clinical study in healthy subjects was run.
The primary objective of this study was to measure the daily chronotropic effects of two siponimod dose-titration regimens (from 0.25 mg to 10 mg; Dose Titration (DT) 1# and 2#, respectively) compared to daily chronotropic effects of oral siponimod 10 mg (fixed dose, once daily) and placebo over 12 days. The heart rate (HR) changes have been compared between subjects exposed to 10 mg siponimod once daily (QD) with or without 2 different up-titration schemes. The titration scheme of this study was: • DT 1#: Day 1: 0.25 mg; Day 2: 0.25 mg; Day 3: 0.25 mg; Day 4: 0.5 mg; Day 5: 1.0 mg; Day 6: 2.0 mg; Day 7: 4.0 mg; Day 8: 8.0 mg and from Day 9 to Day 12: 10.0 mg daily. • DT 2#: Day 1: 0.25 mg; Day 2: 0.25 mg; Day 3: 0.5 mg; Day 4: 0.75 mg; Day 5: 1.25 mg; Day 6: 2.0 mg; Day 7: 3.0 mg; Day 8: 5.0 mg; from Day 9 to Day 12: 10.0 mg daily.
This effect was maintained until end of treatment on Day 12. […] It was then concluded that both titration regimens effectively attenuated the initial bradycardia observed on Day 1 of treatment with siponimod 10 mg daily fixed-dose.

[2] = phase II dose finding study in relapsing-remitting multiple sclerosis (CBAF312A2201); assay type: in vivo, human; conditions: RRMS patients
Method: In a phase II dose finding study of siponimod in patients with relapsing-remitting multiple sclerosis (CBAF312A2201) safety, tolerability and efficacy on magnetic resonance imaging (MRI) brain lesion parameters were evaluated. The dose response curve for the MRI-based efficacy of siponimod given orally once daily compared with placebo was determined.
The dose-response curve as defined by the primary endpoint, favored the upper part of this range, i.e. a dose in the range of siponimod 2 mg, since efficacy seemed to decrease with lower doses. Siponimod achieved positive results in a clinical trial for the treatment of RRMS patients (Selmaj et al., Lancet Neurol, 2013, 12, 756-767) and is currently being investigated in an ongoing phase III study (EXPAND) in patients with SPMS. The dose of 2 mg of siponimod was the chosen dose for this follow up phase III study.

[3] = siponimod single dose study (SAD study) in healthy volunteers; assay type: in vivo; conditions: healthy subjects
[4] = general pharmacokinetics/pharmacodynamics of siponimod (lymphocyte counts, half-life, brain penetration); assay type: in vivo; conditions: in vivo
Method: (§1) Siponimod is a second generation S1P receptor modulator that reduces peripheral lymphocyte counts approximately 4-6 hours (h) after the first dose. […] Siponimod's mode of action is believed to include S1P1-mediated prevention of effector lymphocyte recirculation from lymphatic tissue to sites of inflammation, such as the central nervous system (CNS). In addition, there may be direct beneficial effects in the CNS mediated by S1P1 and/or S1P5. […] Thus, siponimod may display additional beneficial activities in the CNS.

[5] = test system: peripheral lymphocyte counts; assay: as above; assay type: in vivo
Method: as §1

[6] = multiple ascending dosing study (MAD study) in healthy subjects, adverse events; assay type: in vivo, human; conditions: maximum investigated multiple dose of 20 mg, over 28 days
Method: (§2) In another study in healthy subjects siponimod was administered in multiple doses, i.e. 0.3, 1, 2.5, 10 and 20 mg, over 28 days (multiple ascending dosing study, MAD study).

[7] = test system: CYP2C9, CYP3A4; conditions: humans; cited from earlier work
[8] = clinical study of siponimod pharmacokinetics in CYP2C9 poor metabolizers; assay type: in vivo, human
Text: In addition to the previously described benefits, the dosing regimen of the present disclosure has also the advantage to highly reduce the additional risks run by the CYP2C9 poor metabolizer.

[9] = test system: Absolute Lymphocyte Count (ALC); assay: multiple ascending dosing study in healthy volunteers, decline of Absolute Lymphocyte Count; assay type: in vivo, human
Method: as §2

[10] = i.v. (bolus) cardiovascular safety studies; assay type: in vivo, guinea pig, rat and rabbit; conditions: similar to the effects by oral route
Text: (§3) The safety of the i.v. route in humans was supported by a local tolerance study in rabbit and cardiovascular safety studies in guinea pig, rat and rabbit using i.v. (bolus) route.

[11] = randomized placebo-controlled study of siponimod in intracerebral hemorrhage (ICH) patients; assay type: in vivo, human; conditions: compared to placebo
Text: The clinical study investigates the initial efficacy and safety of siponimod administered on top of standard-of-care compared to placebo in patients with intracerebral hemorrhage (ICH). This is a randomized, doubled-blinded, placebo-controlled, parallel group study of siponimod on top of standard-of-care for ICH, consisting of 3 epochs: Screening/Baseline, Treatment, and Follow-Up (see FIG. 1).
Patients fulfilling all eligibility criteria are randomly allocated to one of two treatment groups in a ratio of 1:1. […] These patients continue to be followed for the remainder of the assessment schedule (Table 3). i.v. Dose Titration
The siponimod i.v. dosing regimen is as follows: • Day 1: 0.25 mg over 6 hours (×2), then 0.5 mg over 6 hours, then 0.75 mg over 6 hours for a total Day 1 dose of 1.75 mg • Day 2: 1.25 mg over 6 hours, then 2 mg over 6 hours, then 2.5 mg over 6 hours (×2) for a total Day 2 dose of 8.25 mg • Days 3 through Day 7: 2.5 mg over 6 hours (×4) for a total daily dose of 10 mg. • If patient can swallow then the administration from Day 8 to Day 14 is oral.
This is a randomized, doubled-blinded, placebo-controlled, parallel group study of siponimod on top of standard-of-care for ICH, consisting of 3 epochs: Screening/Baseline, Treatment, and Follow-Up (see FIG. 1).
Patients are assigned to one of the following 2 treatment arms in a ratio of 1:1. • Study treatments are defined as: • Siponimod • Day 1: i.v. 0.25 mg over 6 hours (×2), then 0.5 mg over 6 hours, then 0.75 mg over 6 hours for a total Day 1 dose of 1.75 mg • Day 2: i.v. 1.25 mg over 6 hours, then 2 mg over 6 hours, then 2.5 mg over 6 hours (×2) for a total Day 2 dose of 8.25 mg • Days 3 through 7: i.v. 2.5 mg over 6 hours (×4) for a total daily dose of 10 mg • Days 8 through 14; 10 mg p.o. QD

[12] = i.v. versus oral absolute bioavailability study in healthy subjects (CBAF312A2126), PK and PD; assay type: in vivo, human
Method: A comparison of bradyarrhythmic effects (HR, AVB, SP) of a 1 mg oral dose from previous studies and a 1 mg/day i.v. dose infused over 24 h in healthy subjects supported the hypothesis that such effects are related to the slope of the concentration-time curve.
In said study with siponimod administered intravenously, PK and PD were determined. […] This finding was consistent with previous oral administrations of 0.25 mg (starting dose of the oral initial period dosing regimen).
as §3

For `CCc1cc(/C(C)=N/OCc2ccc(C3CCCCC3)c(C(F)(F)F)c2)ccc1CN1CC(C(=O)O)C1` [siponimod, 1-{4-[(1E)-N-{[4-cyclohexyl-3-(trifluoromethyl)benzyl]oxy}ethanimidoyl]-2-ethylbenzyl}-3-azetidine carboxylic acid], the “reduction in heart rate vs. placebo” value ([1]; Day 1, either titration regimen) was “no statistically significant reduction in heart rate vs. placebo”, the “reduction in HR” value ([1]; Days 3 to 7, DT 1# and DT 2#) was “minor reductions in HR” and the “heart rates versus placebo” value ([1]; by Day 9 until Day 12, both titration regimens) was “comparable to placebo”. The “clinically significant bradycardia or AV conduction effects” value ([1]; dose titration regimens DT 1# and DT 2# (0.25 mg to 10 mg), oral, 12 days) was “Neither DT 1# nor DT 2# resulted in clinically significant bradycardia or AV conduction effects”, the “heart rates versus placebo” value ([1]; non-titration regimen, 10 mg fixed dose once daily, throughout the study) was “considerable separation from placebo” and the bradyarrhythmia ([1]; starting dose of 0.25 mg of the 2 DT regimens) was “not associated with bradyarrhythmia”. The MRI-based efficacy ([2]; 1.25 mg to 2 mg dose range) was “close to maximal efficacy”, the safety profile ([2]; 1.25 mg to 2 mg dose range) was “good safety profile” and the MRI-based efficacy ([2]; 10 mg orally once daily) was “little additional efficacy compared to 2 mg”. The safety profile ([2]; 10 mg orally once daily) was “worse safety profile”, the safety and tolerability ([3]; 25 mg single dose) was “favorable safety and tolerability profile” and the “single maximum tolerated dose (single MTD)” value ([3]; single dose) was 25 mg. For the same compound, the half-life [4] was about 30 h, the “time to reduction of peripheral lymphocyte counts” value ([5]; after the first dose) was 4 to 6 h (h) and the “recovery of the baseline lymphocyte counts” value ([5]; after treatment withdrawal) was “within a week”. For the same compound, the “blood brain barrier crossing” value ([5]; in vivo) was “readily crosses the blood brain barrier”, the “only relevant adverse event” value [6] was “symptomatic bradycardia” and the metabolizing enzymes [7] was “mainly by CYP2C9, followed by CYP3A4”. For the same compound, the “Tmax in poor versus extensive metabolizers” value ([8]; poor and extensive metabolizers) was “comparable”, the “Cmax in poor versus extensive metabolizers” value ([8]; poor metabolizers) was “only slightly greater” and the “AUC fold versus extensive metabolizers (CYP2C9*1*1)” value ([8]; poor metabolizers (CYP2C9*2*3 and CYP2C9*3*3 genotypes)) was “approximately 2 fold”. For the same compound, the “% Emax0-12 h from Day 1 pre-dose” value ([9]; 0.3 mg dose group) was 41.9%, the “% Emax0-12 h from time-matched Day −1” value ([9]; 0.3 mg dose group) was 47.8% and the “% Emax0-12 h from Day 1 pre-dose” value ([9]; 1 mg dose group) was 71.3%. For the same compound, the “% Emax0-12 h from time-matched Day −1” value ([9]; 1 mg dose group) was 73.8%, the “ALC decrease, chronic response” value ([9]; 2.5 mg) was about 70% and the “% Emax0-12 h from Day 1 pre-dose” value ([9]; 2.5 mg dose group) was 66.9%. For the same compound, the “% Emax0-12 h from time-matched Day −1” value ([9]; 2.5 mg dose group) was 67.5%, the “ALC decrease, chronic response (plateau)” value ([9]; 10 mg) was “about 80%” and the “% Emax0-12 h from Day 1 pre-dose” value ([9]; 10 mg dose group) was 83.7%. For the same compound, the “% Emax0-12 h from time-matched Day −1” value ([9]; 10 mg dose group) was 86.1%, the “% Emax0-12 h from Day 1 pre-dose” value ([9]; 20 mg dose group) was 84.8% and the “% Emax0-12 h from time-matched Day −1” value ([9]; 20 mg dose group) was 86.5%. For the same compound, the “acute ALC response” value ([9]; Day 1 of treatment, between 0.3 mg and 10 mg dose) was “dose-dependent decline of ALC”, the cardiovascular effects [10] was “Cmax-related transient cardiovascular effects” and the “global functioning, modified Rankin Scale (mRS) score” value ([11]; Day 90 after ICH, 7 days i.v. with titration followed by 7 days p.o.) was “improves global functioning”. The “development of perihematomal edema (PHE)” value ([11]; between 24 hours and 14 days after initiation of treatment) was “decreases the development of perihematomal edema (PHE)”, the functional mobility ([11]; two week treatment) was “improves functional mobility of the affected body parts” and the “pharmacokinetics (PK) linearity” value ([12]; human, in vivo) was “dose linear and time-independent pharmacokinetics”. The Tmax ([12]; human, in vivo, 0.25 mg, oral, after dosing, read-out: median oral Tmax) was 8 h, the “magnitude of PD (ALC) effects %Emax, i.v. versus oral” value ([12]; i.v. 0.25 mg over 3 hour and 1 mg over 24 hours) was “comparable to the effects after oral doses at the same dose levels” and the “median i.v. Tmax” value ([12]; i.v. infusion 0.25 mg over 3 hours and 1 mg over 24 hours) was “at the end of the 3 hour and 24 hour infusions”. For the same compound, the cardiac safety profile ([12]; i.v. infusion 0.25 mg over 3 hours and 1 mg over 24 hours (4×0.25 mg/6 hours)) was “excellent cardiac safety profile” and the “geometric mean oral Cmax relative to mean i.v. Cmax (lower)” value ([12]; oral versus i.v.) was -48%.
